Reference: patent publication US20240425524A1, “SPIROTRICYCLE RIPK1 INHIBITORS AND METHODS OF USES THEREOF” (Merck Sharp & Dohme LLC, priority 2021, published 2024)
pEC50: −log10 of the molar value.

target: RIPK1 (Homo sapiens (Human), UniProt Q13546); experiment: RIPK1-ADP-Glo Enzymatic Assay; format: biochemical; settings: recombinant GST-RIPK1 kinase domain (residues 1-327), 25 nM, ten-point titration, 30 minutes pre-incubation
How it was run: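 GST-RIPK1 kinase domain (residues 1-327, Sf21-expressed; 25 nM final) was pre-incubated 30 min at ambient temperature with compound (10-point 1:3 series from 100000 nM, 1% DMSO) in HEPES pH 7.3 buffer with 20 mM MgCl2. The reaction was started with 900 μM ATP (addition solution) and 3 μM dephosphorylated MBP and ran 150 min. Read-out was ADP-Glo luminescence, with EC50 from a four-parameter fit.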

Sequence of RIPK1 (Q13546 1-327): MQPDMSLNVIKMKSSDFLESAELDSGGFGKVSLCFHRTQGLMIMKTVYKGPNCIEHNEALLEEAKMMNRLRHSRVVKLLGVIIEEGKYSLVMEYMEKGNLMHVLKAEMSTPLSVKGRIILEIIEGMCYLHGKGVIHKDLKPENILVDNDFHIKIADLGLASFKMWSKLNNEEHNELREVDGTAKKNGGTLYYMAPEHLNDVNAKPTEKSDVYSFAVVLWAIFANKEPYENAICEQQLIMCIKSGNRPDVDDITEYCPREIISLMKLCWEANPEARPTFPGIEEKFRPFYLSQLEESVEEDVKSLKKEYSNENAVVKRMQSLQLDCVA

Row | Structure (SMILES) | pEC50
1 | O=C(c1cc(F)cc(Cl)c1)N1CCC2(CC1)CN1CC[C@@H](c3cc(F)cc(F)c3)N1C2=O [Example 4.19, (S)-1-(3-chloro-5-fluorobenzoyl)-7′-(3,5-difluorophenyl) dihydro-1′H,3′H,5′H-spiro[piperidine-4,2′-pyrazolo[1,2-a]pyrazol]-l′-one] | 7.74
2 | O=C(c1cc(F)ccc1Cl)N1CCC2(CC1)CN1CC[C@@H](c3cc(F)cc(F)c3)N1C2=O [Example 4.20, (S)-1-(2-chloro-5-fluorobenzoyl)-7′-(3,5-difluorophenyl) dihydro-1′H,3′H,5′H-spiro[piperidine-4,2′-pyrazolo[1,2-a]pyrazol]-l′-one] | 7.30
3 | O=C(c1cc(F)ccc1F)N1CCC2(CC1)CN1CC[C@@H](c3cc(F)cc(F)c3)N1C2=O [Example 4.21, (S)-1-(2,5-difluorobenzoyl)-7′-(3,5-difluorophenyl) dihydro-1′H,3′H,5′H-spiro[piperidine-4,2′-pyrazolo[1,2-a]pyrazol]-l′-one] | 7.82
4 | Cc1ccc(C(=O)N2CCC3(CC2)CN2CC[C@@H](c4cc(F)cc(F)c4)N2C3=O)cc1F [Example 4.22, (S)-7′-(3,5-difluorophenyl)-1-(3-fluoro-4-methylbenzoyl) dihydro-1′H,3′H,5′H-spiro[piperidine-4,2′-pyrazolo[1,2-a]pyrazol]-l′-one] | 7.34
5 | O=C(c1ccc(Cl)c(F)c1)N1CCC2(CC1)CN1CC[C@@H](c3cc(F)cc(F)c3)N1C2=O [Example 4.23, (S)-1-(4-chloro-3-fluorobenzoyl)-7′-(3,5-difluorophenyl) dihydro-1′H,3′H,5′H-spiro[piperidine-4,2′-pyrazolo[1,2-a]pyrazol]-l′-one] | 7.64
6 | O=C(c1ccc(F)c(F)c1)N1CCC2(CC1)CN1CC[C@@H](c3cc(F)cc(F)c3)N1C2=O [Example 4.24, (S)-1-(3,4-difluorobenzoyl)-7′-(3,5-difluorophenyl) dihydro-1′H,3′H,5′H-spiro[piperidine-4,2′-pyrazolo[1,2-a]pyrazol]-l′-one] | 7.49
7 | O=C(c1cccc(F)c1)N1CCC2(CC1)CN1CC[C@@H](c3cc(F)cc(F)c3)N1C2=O [Example 4.25, (S)-7′-(3,5-difluorophenyl)-1-(3-fluorobenzoyl) dihydro-1′H,3′H,5′H-spiro[piperidine-4,2′-pyrazolo[1,2-a]pyrazol]-l′-one] | 7.46
8 | Cc1cc(F)c(C(=O)N2CCC3(CC2)CN2CC[C@@H](c4cc(F)cc(F)c4)N2C3=O)cc1F [Example 4.26, (S)-1-(2,5-difluoro-4-methylbenzoyl)-7′-(3,5-difluorophenyl) dihydro-1′H,3′H,5′H-spiro[piperidine-4,2′-pyrazolo[1,2-a]pyrazol]-l′-one] | 7.64
9 | COc1cc(F)cc(C(=O)N2CCC3(CC2)CN2CC[C@@H](c4cc(F)cc(F)c4)N2C3=O)c1 [Example 4.27, (S)-7′-(3,5-difluorophenyl)-1-(3-fluoro-5-methoxybenzoyl) dihydro-l′H,3′H,5′H-spiro[piperidine-4,2′-pyrazolo[1,2-a]pyrazol]-l′-one] | 7.59
10 | O=C(c1cccc(F)c1Cl)N1CCC2(CC1)CN1CC[C@@H](c3cc(F)cc(F)c3)N1C2=O [Example 4.28, (S)-1-(2-chloro-3-fluorobenzoyl)-7′-(3,5-difluorophenyl)dihydro-1′H,3′H,5′H-spiro[piperidine-4,2′-pyrazolo[1,2-a]pyrazol]-l′-one] | 7.44
11 | O=C(c1cccc(F)c1F)N1CCC2(CC1)CN1CC[C@@H](c3cc(F)cc(F)c3)N1C2=O [Example 4.29, (S)-1-(2,3-difluorobenzoyl)-7′-(3,5-difluorophenyl) dihydro-1′H,3′H,5′H-spiro[piperidine-4,2′-pyrazolo[1,2-a]pyrazol]-l′-one] | 7.64
12 | O=C(c1ccccc1)N1CCC2(CC1)CN1CC[C@@H](c3cc(F)cc(F)c3)N1C2=O [Example 5.1] | 7.89
13 | COC(=O)N1CCC2(CC1)CN1CC[C@@H](c3cc(F)cc(F)c3)N1C2=O [Example 5.2, methyl (S)-7′-(3,5-difluorophenyl)-1′-oxodihydro-1′H,3′H,5′H-spiro [piperidine-4,2′-pyrazolo[1,2-a]pyrazole]-1-carboxylate] | 6.86
14 | O=C1N2[C@H](c3cc(F)cc(F)c3)CCN2CC12CCN(S(=O)(=O)c1ccccc1)CC2 [Example 5.3, (S)-7′-(3,5-difluorophenyl)-1-(phenylsulfonyl) dihydro-l′H,3′H,5′H-spiro[piperidine-4,2′-pyrazolo[1,2-a]pyrazol]-l′-one] | 6.08
15 | O=C1N2[C@H](c3cc(F)cc(F)c3)CCN2CC12CCN(Cc1ccc3ccccc3n1)CC2 [Example 6.1, (S)-7′-(3,5-difluorophenyl)-1-(quinolin-2-ylmethyl) dihydro-1′H,3′H,5′H-spiro [piperidine-4,2′-pyrazolo[1,2-α]pyrazol]-1′-one] | 6.15
16 | N#Cc1ccc(N2CCC3(CC2)CN2CC[C@@H](c4cc(F)cc(F)c4)N2C3=O)n2nccc12 [Example 7.1] | 8.22
17 | O=C1N2[C@H](c3cc(F)cc(F)c3)CCN2CC12CCN(c1ccc(Cl)c3ccnn13)CC2 [Example 8.1, (S)-1-(4-chloropyrazolo[1,5-α]pyridin-7-yl)-7′-(3,5-difluorophenyl) dihydro-1′H,3′H,5′H-spiro [piperidine-4,2′-pyrazolo[1,2-α]pyrazol]-1′-one] | 8.15
18 | O=C1N2[C@H](c3cc(F)cc(F)c3)CCN2CC12CCN(c1cccc3ccnn13)CC2 [Example 8.2, (S)-7′-(3,5-difluorophenyl)-1-(pyrazolo[1,5-α]pyridin-7-yl) dihydro-1′H,3′H,5′H-spiro [piperidine-4,2′-pyrazolo[1,2-α]pyrazol]-1′-one] | 7.47
19 | Cc1ccc(N2CCC3(CC2)CN2CC[C@@H](c4cc(F)cc(F)c4)N2C3=O)n2nccc12 [Example 9.1, (S)-7′-(3,5-difluorophenyl)-1-(4-methylpyrazolo[1,5-α]pyridin-7-yl) dihydro-1′H,3′H,5′H-spiro [piperidine-4,2′-pyrazolo[1,2-α]pyrazol]-1′-one] | 7.77
20 | O=C1N2[C@H](c3cc(F)cc(F)c3)CCN2CC12CCN(c1cccc(F)c1)CC2 [Example 10.1, (S)-7′-(3,5-difluorophenyl)-1-(3-fluorophenyl) dihydro-1′H,3′H,5′H-spiro [piperidine-4,2′-pyrazolo[1,2-α]pyrazol]-1′-one] | 7.33
21 | O=C1N2[C@H](c3cc(F)cc(F)c3)CCN2CC12CCN(c1cncc(F)c1)CC2 [Example 10.2, (S)-7′-(3,5-difluorophenyl)-1-(5-fluoropyridin-3-yl)dihydro-1′H,3′H,5′H-spiro[piperidine-4,2′-pyrazolo[1,2-a]pyrazol]-l′-one] | 6.47
22 | O=C1N2[C@H](c3cc(F)cc(F)c3)CCN2CC12CCN(c1ccc(F)cc1)CC2 [Example 10.3, (S)-7′-(3,5-difluorophenyl)-1-(4-fluorophenyl)dihydro-1′H,3′H,5′H-spiro[piperidine-4,2′-pyrazolo[1,2-a]pyrazol]-l′-one] | 6.91
23 | Cc1nc(N2CCC3(CC2)CN2CC[C@@H](c4cc(F)cc(F)c4)N2C3=O)ccc1Cl [Example 11.1, (S)-1-(5-chloro-6-methylpyridin-2-yl)-7′-(3,5-difluorophenyl) dihydro-1′H,3′H,5′H-spiro [piperidine-4,2′-pyrazolo[1,2-α]pyrazol]-1′-one] | 7.64
24 | Cc1nc(N2CCC3(CC2)CN2CC[C@@H](c4cc(F)cc(F)c4)N2C3=O)ccc1F [Example 11.2, (S)-7′-(3,5-difluorophenyl)-1-(5-fluoro-6-methylpyridin-2-yl)dihydro-1′H,3′H,5′H-spiro[piperidine-4,2′-pyrazolo[1,2-a]pyrazol]-l′-one] | 7.37
